The nature of series [1]: Octanol–water partition, shake-flask method. Format: physicochemical. Particulars: 200 μM, n-octanol/water, 2 h mixing, SE in parentheses; for logP at 2 h: read-out: log P (log10KOW). As for the experimental part: The shake-flask method was done using 2 mL Eppendorf tubes and three replicates. […] After mixing, aliquots of 500 μL were transferred to new Eppendorf tubes, and 500 μL of n-octanol was added that had been saturated with water. The solvent systems were mixed in a vortex mixer for 2 h, and then both the water and the n-octanol layers as well as the initial water solution were analyzed by UPLC–DAD using the shorter phenyl column (section 2.4). The chromatograms were integrated using TargetLynx software (version 4.2), and the octanol–water partition coefficient, log P, was calculated as the log10 of the ratio of area in n-octanol phase to the area in water phase. Recovery % was calculated by summing the areas in both phases and dividing the summation with the area measured from the initial water phase.

A short description of series [2]: Stability in phosphate buffered saline. It is filed as physicochemical. Particulars: for half-life at 150 μM: phosphate buffered saline, read-out: half-life (t1/2); for half-life at 150 μM / half-life (t1/2): first-order kinetics, UV 280 nm, 150 μM; for stability in phosphate buffered saline (in words): first time point, approx. 15 min after adding PBS; for starting material remaining (in words): after 26 h incubation in PBS. As to the method:
The stabilities of the compounds were measured in PBS, which was prepared from commercially available tablets that were dissolved in ultrapure water. The phosphate concentration was 0.01 M, the pH was 7.4, and the potassium and sodium chloride concentrations were 0.0027 and 0.137 M, respectively. […] The compounds were dissolved in 2 mL of the PBS solution in Eppendorf tubes, vortexed for approximately 15 min, and filtered through a 0.2 μm PTFE filter to a 2 mL UPLC vial. The solutions were analyzed with the UPLC-DAD-HESI-Orbitrap-MS instrument using the longer phenyl column (section 2.4), and repeated injections were done every 47.5 min for approximately 12 h. […] The UV chromatograms at 280 nm were integrated using the QuanBrowser module in Xcalibur software (version 4.1.31.9), and the main degradation products were identified in QualBrowser by their high-resolution mass spectra and UV spectra. With each compound, the measured areas were transformed to proportional areas by dividing all areas with the initial area in the first injection of the time series, and the data was further loge transformed and fitted with first-order linear regression curves. The regression curves were supplemented with 95% confidence intervals to visualize the uncertainty in the fitted curves. The half-lives were calculated from the slope (k) parameters of the linear regression model using the following equation: [drawing 1]

In series [3] the target is T1, bovine serum albumin (BSA) (Bos taurus, UniProt P02769).
T1 construct: purchased Sigma-Aldrich (MO, USA)
The series is described as follows: Protein precipitation capacity (PPC), turbidimetric well-plate reader assay with BSA, log-normal dose–response model. It is filed as biochemical. Particulars: SE in parentheses; for ED90 (mM) / EC50: BSA 0.1 mM; for EC50: concentration giving 50% of maximal absorbance (420 nm haze), read-out: ED50 (the source's name); for slope: slope parameter of log-normal dose–response model. As to the method: (§1) PPC was measured by using the turbidimetric well-plate reader assay of Engström et al. (2019), with few modifications to the volumes of the reactants and to the number of replicates, for instance. The analyzes of the supernatants were done following Engström et al. (2022).[21] Briefly, 75 μL of BSA solution and 75 μL of the solutions of compounds 2–14 were pipetted to well plates, and the intensity of the forming haze was measured periodically at 420 nm using a well-plate reader. The PPC of the PC analogue 1 was not measured because it was not soluble in suitable solvents. The reactions were monitored for 30 min, and the highest intensities were recorded. A single background measurement was done at each concentration with all the components in the wells but the BSA. The reactions were done in triplicates (and in duplicates with PC C1), and the concentrations of the compounds 2–14 in the reaction mixtures were 0.25 0.65, 1.05, 1.45, 1.85, and 2.25 mM. The concentration of the BSA was kept constant at 0.1 mM. Therefore, the tested molar ratios to BSA were 2.5:1, 6.5:1, 10.5:1, 14.5:1, 18.5:1, and 22.5:1. After the 30 min, the supernatants and precipitates of the replicates were combined in a 1.5 mL Eppendorf tube and separated by centrifuging. The supernatants were then analyzed by UPLC–DAD using the shorter phenyl column (section 2.4) to quantify the leftover compounds 2–14 and BSA. Leftover BSA was quantified using a separately prepared linear calibration curve (1–125 μM), and the compounds 2–14 were quantified by analyzing the background solutions from the well-plate reader assay and constructing a calibration curve from these analyzes. BSA was quantified at 280 nm and compounds 2–14 at 280–320 nm. The wavelength of maximal UV absorption for compounds 2–14 could not be utilized in quantification because the diode array detector was saturated at the optimal wavelengths due to the high concentrations used in the well-plate reader assay. Therefore, off-optimal wavelengths were chosen for quantification separately for each compound 2–14 to reduce intensities and to obtain linear fits for calibration curves.
All statistical analyzed were performed with R (version 4.2.2) in the integrated development environment Rstudio (version 2022.12.0.353).[23],[24] The PPC data was fitted with a dose–response model using the package drc.[25] Various models, e.g., logit and log-normal models, were compared using the mselect function, and the best fitting model was chosen based on the Akaike’s information criterion and residual error when comparing all models, and log-likelihood was used when comparing nested models. All compounds were assumed to have the same upper and lower asymptotes; the former was estimated from the experimental data, and the latter was fixed at zero.

Series [4] can be described thus: Octanol–water partition, shake-flask method. It is filed as physicochemical. Particulars: for logP / KOW: tentative values, experiment shorter than two hours because the compounds degraded; for logP: read-out: log P (log10KOW).
Series [5] deals with T1, bovine serum albumin (BSA). The series is described as follows: UPLC–DAD analysis of supernatants from the PPC experiment (proportion of precipitated BSA). It is filed as biochemical. As for the experimental part: as §1
[6] abbreviates: pH 7.4, PBS pH 7.4, 0.01 M phosphate.

SMILES strings stand for the structures. Like-named read-outs stand apart in the source and are kept apart here.

T1 sequence (P02769 25-607): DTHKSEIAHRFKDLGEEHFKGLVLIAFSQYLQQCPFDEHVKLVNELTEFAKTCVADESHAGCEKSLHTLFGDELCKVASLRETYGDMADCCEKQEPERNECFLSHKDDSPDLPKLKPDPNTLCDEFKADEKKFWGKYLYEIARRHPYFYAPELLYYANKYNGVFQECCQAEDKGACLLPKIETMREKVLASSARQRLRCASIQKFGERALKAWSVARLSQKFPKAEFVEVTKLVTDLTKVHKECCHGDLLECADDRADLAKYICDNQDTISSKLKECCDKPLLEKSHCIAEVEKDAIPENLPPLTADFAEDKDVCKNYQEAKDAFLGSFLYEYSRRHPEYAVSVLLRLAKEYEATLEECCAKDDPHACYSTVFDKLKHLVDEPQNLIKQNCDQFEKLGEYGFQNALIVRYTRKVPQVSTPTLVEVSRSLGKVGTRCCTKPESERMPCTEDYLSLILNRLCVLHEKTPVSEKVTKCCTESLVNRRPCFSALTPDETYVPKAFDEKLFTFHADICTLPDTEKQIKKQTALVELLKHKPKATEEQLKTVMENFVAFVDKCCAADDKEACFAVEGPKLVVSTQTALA

As for `Oc1ccc([C@H]2Oc3c(Cc4c(O)cc(O)c5c4O[C@H](c4ccc(O)c(O)c4)[C@@H](O)C5)c(O)cc(O)c3C[C@@H]2O)cc1O` [Compound 1], in series [1], the KOW is recorded as 5.00 (0.05) and the logP at 2 h was determined as 0.7. Also, the half-life at 150 μM in series [2] (setting [6]) is 3.45 h.
Turning to `Oc1ccc([C@H]2Oc3c(Cc4c(O)cc(O)c5c4O[C@H](c4ccc(O)c(O)c4)[C@H](O)C5)c(O)cc(O)c3C[C@H]2O)cc1O` [Compound 2, Epicatechin–methylene–epicatechin], in series [1], the KOW is 1.46 (0.01) and the logP at 2 h worked out at 0.16. Besides, in series [3], the “ED90 (mM)” value was 3.45 (0.10) mM, the EC50 came to 2180 µM and the slope is recorded as 2.80 (0.13). In series [2] (setting [6]), the half-life at 150 μM is 2.05 h.
As for `O=C(O)C(c1c(O)cc(O)c2c1O[C@H](c1ccc(O)c(O)c1)[C@@H](O)C2)c1c(O)cc(O)c2c1O[C@H](c1ccc(O)c(O)c1)[C@@H](O)C2` [Compound 3], in series [1], the KOW was 0.04 (0.00) and the logP at 2 h is -1.37. In addition, in series [3], the “ED90 (mM)” value was 3.34 (0.09) mM, the EC50 came out at 2030 µM and the slope is 2.57 (0.10). The half-life at 150 μM in series [2] (setting [6]) is 6.27 h.
Consider `O=C(O)C(c1c(O)cc(O)c2c1O[C@H](c1ccc(O)c(O)c1)[C@H](O)C2)c1c(O)cc(O)c2c1O[C@H](c1ccc(O)c(O)c1)[C@H](O)C2` [Compound 4, Epicatechin–carboxymethine–epicatechin], for which, in series [1], the KOW is listed as 0.02 (0.00) and the logP at 2 h is -1.78. Also, in series [3], the “ED90 (mM)” value is listed as 3.30 (0.08) mM, the EC50 came to 2030 µM and the slope is given as 2.64 (0.11). In addition, the half-life at 150 μM in series [2] (setting [6]) was found to be 7 h.
For `Oc1ccc([C@H]2Oc3c(c(O)cc(O)c3C(c3ccco3)c3c(O)cc(O)c4c3O[C@H](c3ccc(O)c(O)c3)[C@@H](O)C4)C[C@@H]2O)cc1O` [Compound 5, Catechin–furanmethine–catechin], in series [1], the KOW was 5.28 (0.02) and the logP at 2 h was determined as 0.72. Besides, in series [3], the “ED90 (mM)” value is 2.58 (0.06) mM, the EC50 turned out to be 1390 µM and the slope is 2.08 (0.07). In series [2] (setting [6]), the half-life at 150 μM was determined as 8.85 h.
As to `Oc1ccc([C@H]2Oc3c(c(O)cc(O)c3C(c3ccco3)c3c(O)cc(O)c4c3O[C@H](c3ccc(O)c(O)c3)[C@H](O)C4)C[C@H]2O)cc1O` [Compound 6, Epicatechin–furanmethine–epicatechin], in series [1], the KOW is on record as 2.08 (0.00) and the logP at 2 h worked out at 0.32. Besides, in series [3], the “ED90 (mM)” value is 3.32 (0.09) mM, the EC50 is 1830 µM and the slope is recorded as 2.15 (0.08). In addition, in series [2] (setting [6]), the half-life at 150 μM amounted to 5.82 h.
`Oc1ccc(C(c2c(O)cc(O)c3c2O[C@H](c2ccc(O)c(O)c2)[C@@H](O)C3)c2c(O)cc(O)c3c2O[C@H](c2ccc(O)c(O)c2)[C@@H](O)C3)cc1O` [Compound 7, Catechin–catecholmethine–catechin]: in series [1], the KOW is recorded as 0.79 (0.00) and the logP at 2 h was -0.1. Also, in series [3], the “ED90 (mM)” value is 2.53 (0.07) mM, the EC50 was found to be 1290 µM and the slope is given as 1.90 (0.06). Moreover, the “half-life (t1/2)” value in series [2] (PBS pH 7.4, 0.01 M phosphate) lay in the range of 0.917 to 1.4 h. In addition, the half-life at 150 μM in series [2] (setting [6]) worked out at 0.917 h.
As to `Oc1ccc(C(c2c(O)cc(O)c3c2O[C@H](c2ccc(O)c(O)c2)[C@H](O)C3)c2c(O)cc(O)c3c2O[C@H](c2ccc(O)c(O)c2)[C@H](O)C3)cc1O` [Compound 8, Epicatechin–catecholmethine–epicatechin], in series [1], the KOW was 0.34 (0.00) and the logP at 2 h was -0.47. In series [3], the “ED90 (mM)” value was 2.61 (0.06) mM, the EC50 turned out to be 1500 µM and the slope is 2.30 (0.08). The “half-life (t1/2)” value in series [2] (PBS pH 7.4, 0.01 M phosphate) lay within 0.917 to 1.4 h. Also, the half-life at 150 μM in series [2] (setting [6]) is 1.4 h.
Consider `Oc1ccc([C@H]2Oc3c(c(O)cc(O)c3C(c3cc(O)c(O)c(O)c3)c3c(O)cc(O)c4c3O[C@H](c3ccc(O)c(O)c3)[C@@H](O)C4)C[C@@H]2O)cc1O` [Compound 9], for which the logP in series [4] (n-octanol/water) is -0.85. Besides, the KOW in series [4] was 0.14 (0.01). Further, in series [3], the “ED90 (mM)” value was 2.61 (0.06) mM, the EC50 amounted to 1400 µM and the slope is reported as 2.04 (0.06). For the same molecule, the “stability in phosphate buffered saline (in words)” value in series [2] is reported as “completely degraded already at the first time point”. Besides, in series [2] (setting [6]), the half-life at 150 μM was under 0.25 h.
In the case of `Oc1ccc([C@H]2Oc3c(c(O)cc(O)c3C(c3cc(O)c(O)c(O)c3)c3c(O)cc(O)c4c3O[C@H](c3ccc(O)c(O)c3)[C@H](O)C4)C[C@H]2O)cc1O` [Compound 10], the logP in series [4] (n-octanol/water) was -1.18. Besides, in series [4], the KOW is 0.07 (0.00). For the same molecule, in series [3], the “ED90 (mM)” value was 2.41 (0.05) mM, the EC50 amounted to 1440 µM and the slope is on record as 2.48 (0.08). Also, the “stability in phosphate buffered saline (in words)” value in series [2] is reported as “completely degraded already at the first time point”. Besides, the half-life at 150 μM in series [2] (setting [6]) was under 0.25 h.
Regarding `Oc1cc(O)c2c(c1)O[C@H](c1ccc(O)c(O)c1)[C@@H](O)[C@@H]2c1c(O)cc(O)c2c1O[C@H](c1ccc(O)c(O)c1)[C@@H](O)C2` [Compound 11, PC B3, reference compound], the “activity based on the proportions of precipitated BSA (in words)” value in series [5] was “practically inactive”. Moreover, in series [1], the KOW was 0.16 (0.00) and the logP at 2 h is -0.79. In addition, the half-life at 150 μM in series [2] (setting [6]) worked out at 8.98 h.
With `Oc1cc(O)c2c(c1)O[C@H](c1ccc(O)c(O)c1)[C@@H](O)C2` [Compound 15, catechin, reference compound], the KOW in series [1] is given as 2.61 (0.03). Also, the “log P (log10KOW)” value in series [4] (200 μM, n-octanol/water, 2 h mixing, SE in parentheses) is listed as 0.42 (0.00). The “starting material remaining (in words)” value in series [2] is given as “majority of the starting materials remained”. The half-life at 150 μM in series [2] (PBS pH 7.4, 0.01 M phosphate) was determined as 22.3 h.
`Oc1cc(O)c2c(c1)O[C@H](c1ccc(O)c(O)c1)[C@H](O)C2` [Compound 16, epicatechin, reference compound]: the “starting material remaining (in words)” value in series [2] is reported as “majority of the starting materials remained”. Further, in series [2] (PBS pH 7.4, 0.01 M phosphate), the half-life at 150 μM was 15 h.

(Values after article PMC10722540, “Red Wine Inspired Chemistry: Hemisynthesis of Procyanidin Analogs and Determination of Their Protein Precipitation Capacity, Octanol–Water Partition, and Stability in Phosphate-Buffered Saline” (Journal of Agricultural and Food Chemistry, 2023).)
